Series [1] is described as follows: stability of formulation with magnesium stearate. The series is classed as physicochemical. The settings on record: addition of magnesium stearate in the formulation, under conditions tested.
Series [2] relates to male and female ipratropium-responsive COPD subjects. Kind of series: clinical study, single inhaled doses, FEV1. The series is classed as in vivo, human. The protocol: A third clinical study assessed the safety, tolerability, pharmacodynamics and pharmacokinetics of single inhaled doses of the bromide compound (20, 50 and 100 mcg via Diskus), and tiotropium (18 mcg) in 31 male and female ipratropium-responsive COPD subjects.
Mean FEV1 values peaked at 2 hours and decreased consistently to 24 hours for each dose.

In series [3] the test system is healthy male ipratropium-responsive subjects. As to the kind of experiment: clinical trial, single escalating inhaled doses, airway conductance (sGaw). The series is classed as in vivo, human. The note with it: for increase in airway conductance (sGaw) versus placebo, significance: all doses (bromide compound 20-350 mcg via Diskus; tiotropium 18 mcg), healthy subjects. The source says: In another clinical trial using a binary mixture of the bromide compound and lactose monohydrate, the safety, tolerability, pharmacodynamics and pharmacokinetics of single escalating doses of the bromide compound (20, 60, 100, 250 and 350 mcg via the Diskus), and tiotropium (18 mcg) in 20 healthy male ipratropium-responsive subjects were compared.

The subject of series [4] is muscarinic acetylcholine (Ach) receptor. Kind of series: off-rate at the muscarinic acetylcholine receptor. The series is classed as binding. The source says:
This is known to be predictive of a long duration of action. Therefore, while a twice daily dosing at 10-100 mcg/dose may be used, if the dose is increased, such as to 100-200 mcg/dose, once daily dosing may be a suitable alternative.

In series [5] the test system is isolated human bronchial strips. Kind of series: inhibition of carbachol-induced contraction of isolated human bronchial strips. The series is classed as cell-based. The note with it: for offset half time: 10 nM; for onset half time to 50% inhibition of carbachol-induced contraction: single concentration of 10 nM.
Series [6] concerns M1 and M3 receptors over the M2 receptors. Kind of series: muscarinic receptor subtype selectivity and antagonist character. The series is classed as binding.
A short description of series [7]: human clinical trial, bronchodilation and onset of action. The series is classed as in vivo.

With `C[N+]1(C)C2CCC1CC(CC(C#N)(c1ccccc1)c1ccccc1)C2` (stereo not drawn) [Compound (I), (Endo)-3-(2-cyano-2,2-diphenyl-ethyl)-8,8-dimethyl-8-azonia-bicyclo[3.2.1]octane], the “stabilization of the product on stability” value in series [1] is on record as “some improvement in stabilization”.
In the case of `C[N+]1(C)[C@@H]2CC[C@H]1C[C@@H](CC(C#N)(c1ccccc1)c1ccccc1)C2.[Br-]` [bromide compound, (Endo)-3-(2-cyano-2,2-diphenyl-ethyl)-8,8-dimethyl-8-azonia-bicyclo[3.2.1]octane bromide], the “FEV1 adjusted mean difference versus placebo” value is recorded as 241 mL in series [2] (20 mcg, 12 hours); 135 mL in series [2] (20 mcg, 24 hours); 288 mL in series [2] (50 mcg, 12 hours); 136 mL in series [2] (50 mcg, 24 hours); 305 mL in series [2] (100 mcg, 12 hours); “above 200 mL” in series [2] (100 mcg, 24 hours). Moreover, the “Mean FEV1 versus placebo, significance” value in series [2] (all doses (20, 50, 100 mcg), each time point over 24 hours, COPD subjects) is recorded as “statistically significantly higher than placebo”. In series [2] (each dose (20, 50, 100 mcg)), the “time of peak mean FEV1” value turned out to be 2 h. Besides, in series [3] (20 mcg dose, after 24 hours), the “increase in sGaw compared with placebo” value amounted to 16%. In series [3], the “increase in airway conductance (sGaw) versus placebo, significance” value is recorded as “statistically significantly greater increases”. Also, the “off-rate at the muscarinic acetylcholine (Ach) receptor” value in series [4] was “slow”. This compound also displayed an offset half time in series [5] of 195 min. The “onset half time to 50% inhibition of carbachol-induced contraction” value in series [5] stood at 25 min. Also, the “muscarinic receptor antagonist character” value in series [6] is “high-affinity, pan-active, competitive and reversible”. Moreover, the reversibility of antagonism result in series [6] is “partially reversible antagonist”. Moreover, the “selectivity for the M1 and M3 receptors over the M2 receptors” value in series [6] turned out to be 10 fold. For the same compound, in series [7] (compared with tiotropium), the “onset of action in human clinical trial” value is given as “faster onset of action than tiotropium”. For the same compound, the “bronchodilator efficacy in human clinical trial” value in series [7] (human, in vivo) is “effective long-acting anti-muscarinic bronchodilator”.
Regarding `C[N+]1(C)[C@@H]2C[C@@H](OC(=O)C(O)(c3cccs3)c3cccs3)C[C@H]1[C@@H]1O[C@@H]12` [tiotropium, tiotropium bromide, reference compound], the “increase in airway conductance (sGaw) versus placebo, significance” value in series [3] is given as “statistically significantly greater increases”. In series [5], the offset half time was determined as 314 min and the “onset half time to 50% inhibition of carbachol-induced contraction” value came out at 10 min.

The values are drawn from patent US20100329996A1, “Novel Combination of Therapeutic Agents” (Glaxo Group Limited, priority 2007, published 2010).
